Values after ≈ are worked out from the molar mass of the structure shown.
How the values were obtained:
[1] = tested on: RG2; assay: Cytotoxicity (IC50) on RG2; type: cell-based, rat; settings: for IC50: Table 1, value in parentheses; for Cytotoxicity, IC50 RG2: cancer cells, Table 1
Experimental: (§1) Human tumor cell lines (MCF-7, CL1-5, HT-29, Caco-2), human umbilical vascular endothelial cells (HUVEC), and human dermal fibroblasts (HDF) were tested for sensitivity on Angelicae sinensis extracts, ligustilide, n-butylidenephthalide and its derivatives in vitro. The DBTRG-05MG, BCM, HL-60 and J5 cells were grown in RPMI-1640 medium containing 10% fetal calf serum and 100 ng/ml penicillin and […] streptomycin at 37° C. in a humidified atmosphere with 5% CO2. The G5T/VGH, RG2, Ni 8, SVEC and Balb/3T3 cells were cultured in DMEM with 10% fetal calf serum and 100 ng/ml penicillin and […] streptomycin at 37° C. in 5% CO2. Mycoplasma infection of the culture cells was excluded by PCR screening methods before each experiment.
(§2) The effects on cell viability after the treatments with different concentrations of the Angelicae sinensis extracts or the active components purified therefrom were evaluated by modified MTT assay in triplicate. Briefly, the cells (5×10^3) were incubated into 96-well plates containing 100 μl of a growth medium. The cells were permitted to adhere for 24 hours, then treated with 100 μl of the herbal extracts or the active components dissolved in the medium. The control contained DMSO of <0.02% (v/v). After 24, 48 and 72 h incubation, the drug-containing medium was replaced by 50 μl of fresh medium, and cells in each well were incubated in 50 μl of 400 μg/ml MTT for 6-8 h. The medium and MTT were removed later and 100 μl of DMSO was added to each well and to the control, to dissolve the soluble components. Absorbance at 550 nm of the solutions was measured with MRX Microtiter Plate Luminometer (DYNEX, USA). The absorbance of untreated cells was considered as 100%. To evaluate the effects of the extracts or the active components on cell growth rate of GBM cells, 5×10^3 exponentially growing cells were treated with different concentrations for 24, 48, or 72 h. The cytotoxicity of each test substance was determined as an IC50 value, which represents the drug concentration required to cause 50% inhibition. All experiments in this study were performed in triplicate.

[2] = tested on: ETS-1; assay: RT-PCR of ETS-1 in HUVEC; type: cell-based, human
[3] = tested on: HUVEC; assay: Cytotoxicity (IC50) on HUVEC; type: cell-based, human; settings: normal cells; for Cytotoxicity, IC50 HUVEC: Table 1; for IC50: Table 1, value in parentheses
Text: (§3) Human umbilical vascular endothelial cells (HUVECs) were purchased from Cascade Biologics, Inc. (USA). HUVECs were maintained in Medium 200 (Cascade Biologics, Inc. USA) supplemented with 10% fetal bovine serum (FBS; Gibco BRL) and low serum growth supplement (LSGS; Cascade Biologics, Inc. USA). Human dermal fibroblasts (HDFs) were purchased from Cascade Biologics, Inc. (USA). HDFs were maintained in Medium 106 (Cascade Biologics, Inc. USA) supplemented with 10% FBS and low serum growth supplement (LSGS; Cascade Biologics, Inc. USA). The human colon adenocarcinoma cell lines HT-29 were purchased from the ATCC (Manassas, Va. USA). HT-29 were maintained in Dubecco's Modified Eagle Medium (DMEM; Gibco) supplemented with 10% FBS and 100 ng/ml penicillin and […] streptomycin (Life Technologies, Inc., Grand Island, N.Y., USA). For the proliferation assay of cell in log growth (G1), the cells were harvested at 60-80% of confluence. 100 μl of cell suspensions were dispensed onto a Falcon 96-well plates The densities were 6×10^3 cells/well in Medium 200 (for HUVECs), and 9×10^3 cells/well in Medium 106 (for HDFs), and 5×10^3 cells/well in DMEM (for HT-29) supplemented with 10% FBS. The cells were pre-incubated for 24 hours in an incubator (Humidified atmosphere, e.g., at 37° C., 5% CO2). 10 μl of toxicant of various concentrations were added into the culture medium of the plate. The cell cultures were incubated for 48 hours. 10 μl of the Cell Counting Kit-8 (CCK-8; DOJINDO) solution were added and the cell cultures incubated for 1˜4 hours in the incubator. The absorbance was measured at 450 nm, using a microplate reader with a reference wavelength at 600 nm or over.
as §1, §2

[4] = tested on: HDF; assay: Cytotoxicity (IC50) on HDF; type: cell-based, human; settings: normal cells; for Cytotoxicity, IC50 HDF: Table 1; for IC50: Table 1, value in parentheses
Text: as §3, §1
as §2, with “To evaluate the effects of the extracts or the active components on cell growth rate of GBM cells, 5×10^3 exponentially growing cells were treated with different concentrations for 24, 48, or 72 h. The cytotoxicity of each test substance was determined as an IC50 value, which represents the drug concentration required to cause 50% inhibition. All experiments in this study were performed in triplicate.” left out

[5] = tested on: brain tumor cell lines; assay: Cytotoxicity (IC50) on brain tumor cell lines, pooled statement; type: cell-based; settings: GBM tumors not sensitive
Experimental: as §2

[6] = tested on: G5T/VGH; assay: Cytotoxicity (IC50) on G5T/VGH; type: cell-based; settings: Homo sapiens; Table 2
Experimental: as §1
The effects on cell viability after the treatments with different concentrations of the Angelicae sinensis extracts or the active components purified therefrom were evaluated by modified MTT assay in triplicate. Briefly, the cells (5×10^3) were incubated into 96-well plates containing 100 μl of a growth medium. The cells were permitted to adhere for 24 hours, then treated with 100 μl of the herbal extracts or the active components dissolved in the medium. The control contained DMSO of <0.02% (v/v). […] Absorbance at 550 nm of the solutions was measured with MRX Microtiter Plate Luminometer (DYNEX, USA). The absorbance of untreated cells was considered as 100%. […]

[7] = tested on: DBTRG-05MG; assay: Cytotoxicity (IC50) on DBTRG-05MG; type: cell-based; settings: Homo sapiens, read-out: Cytotoxicity (IC50) DBTRG-05MG
Experimental: as §1
as §2, with “All experiments in this study were performed in triplicate.” left out

[8] = Cytotoxicity (IC50) on HUVEC; type: cell-based, human; settings: human
Text: as §3, §1, §2

[9] = tested on: HUVEC; assay: Tube formation of HUVEC; type: cell-based, human
[10] = tested on: MMP-2; assay: RT-PCR of MMP-2 in HUVEC; type: cell-based, human

| Compound | IC50 [1] [µM] | Cytotoxicity, IC50 RG2 [1] [µg/mL] | Inhibition RT-PCR ETS-1 [2] [µg/mL] | Cytotoxicity, IC50 HUVEC [3] [µg/mL] | IC50 [3] [µM] | Cytotoxicity, IC50 HDF [4] [µg/mL] | IC50 [4] [µM] | IC50 GBM tumors [5] [µg/mL] | IC50 [6] [µg/mL] | IC50 [7] [µg/mL] | IC50 [8] [µg/mL] | Inhibition Tube Formation [9] [µg/mL] | Inhibition RT-PCR MMP-2 [10] [µg/mL] |
| --- | --- | --- | --- | --- | --- | --- | --- | --- | --- | --- | --- | --- | --- |
| CCC/C=C1/OC(=O)c2ccccc21 [BP-E form] | > 106 | >20 | 159.4 | >100 | > 532 | >100 | > 532 | – | – | – | – | – | – |
| O=NN(CCCl)C(=O)NCCCl [carmustin, reference compound] | – | – | – | – | – | – | – | > 100 | – | – | – | – | – |
| CC(=O)O[C@H]1C(=O)[C@@]2(C)[C@H]([C@H](OC(=O)c3ccccc3)[C@]3(O)C[C@H](OC(=O)[C@H](O)[C@@H](NC(=O)c4ccccc4)c4ccccc4)C(C)=C1C3(C)C)[C@]1(OC(C)=O)CO[C@@H]1C[C@@H]2O [Taxol, reference compound] | – | – | – | – | – | – | – | – | < 0.1 | 61 ± 3.3 (≈ 71.4 µM) | < 0.1 | – | – |
| CCC/C=C1\OC(=O)c2ccccc21 [BP-Z form] | > 106 | >20 | 159.4 | >100 | > 532 | 65.25 | 347 | – | – | – | – | 159.4 | 531.3 |
